Experimental data as given in US10959428B2, “Hematophagous arthropod repellent composition” (WOOJUNG BIO INC., priority 2017, dated 2021).
“And” between values parts separate entries of the source, which are not always exact repeats. Identical values can stand only once.

Columns and labels:
[1] = test system: adult Aedes aegypti; assay: cage-in-arm test, complete protection time (CPT); format: in vivo; settings: 4 mg, adult Aedes aegypti
Method: For determining the repellency of prepared samples against adults of Aedes aegypti and Aedes albopicus, a cage-in-arm test was carried out as a method for exposure to skin. Namely, on a back of the hand of a rubber glove, a hole with diameter of 5 cm was created, and, onto an exposed back of the testees, various samples prepared by dissolution in 100 μl of ethanol were applied, and then the skin test was carried out. The testees were healthy males between the ages of 21 and 40. The control group was treated with 100 μl of ethanol only. Female adults (5 to 8 day old) of Aedes aegypti or Aedes albopicus (250 to 300 mosquitoes) were added to a cage for growing adult mosquitoes (25×25×25 cm^3), and adapted to the indoor conditions for 12 to 24 hours before starting the test. When the upper arm of the control group is exposed for 1 minute and at least 6 mosquitoes sit on the upper arm or show a bloodsucking behavior, it was determined as sufficient biting pressure, and then the repellency test was carried out. […] The time period between the time point with initial treatment of a material and the time point at which 2 or more mosquitoes continuously sit on the treatment area or show the bloodsucking behavior was defined as complete protection time (CPT). Furthermore, for obtaining the repellency with regard to concentration, exposure was made for a constant time period regardless of the above and the repellency was calculated by using the following formula. Accordingly, the effect was compared among each test samples. All tests were carried out in triplicate. Repellency %=(Number of insects showing bloodsucking behavior in non-treatment group−Number of insects showing bloodsucking behavior in treatment group)/Number of insects showing bloodsucking behavior in non-treatment group)×100 <Tick Repellency>

[2] = test system: adult Aedes albopicus; assay: cage-in-arm test, repellency and CPT; format: in vivo, Aedes albopictus
Method: For determining the repellency of prepared samples against adults of Aedes aegypti and Aedes albopicus, a cage-in-arm test was carried out as a method for exposure to skin. Namely, on a back of the hand of a rubber glove, a hole with diameter of 5 cm was created, and, onto an exposed back of the testees, various samples prepared by dissolution in 100 μl of ethanol were applied, and then the skin test was carried out. The testees were healthy males between the ages of 21 and 40. The control group was treated with 100 μl of ethanol only. Female adults (5 to 8 day old) of Aedes aegypti or Aedes albopicus (250 to 300 mosquitoes) were added to a cage for growing adult mosquitoes (25×25×25 cm^3), and adapted to the indoor conditions for 12 to 24 hours before starting the test. When the upper arm of the control group is exposed for 1 minute and at least 6 mosquitoes sit on the upper arm or show a bloodsucking behavior, it was determined as sufficient biting pressure, and then the repellency test was carried out. With an interval of 30 minutes, by exposing the upper arm, which has been treated with the above composition, for 3 minutes, and, when the adult mosquito sits on the arm for 2 seconds or longer or at least two mosquitoes showing the behavior of mouth injection to skin or direct bloodsucking are found from consecutive tests, the test was stopped. The time period between the time point with initial treatment of a material and the time point at which 2 or more mosquitoes continuously sit on the treatment area or show the bloodsucking behavior was defined as complete protection time (CPT). Furthermore, for obtaining the repellency with regard to concentration, exposure was made for a constant time period regardless of the above and the repellency was calculated by using the following formula. Accordingly, the effect was compared among each test samples. All tests were carried out in triplicate. Repellency %=(Number of insects showing bloodsucking behavior in non-treatment group−Number of insects showing bloodsucking behavior in treatment group)/Number of insects showing bloodsucking behavior in non-treatment group)×100 <Tick Repellency>
For reference, comparison of the mosquito repellency was made by using clove oil as a natural positive control group and DEET as a synthetic positive control group.
To determine the repellency of plant essential oil alone against adult Aedes albopicus and nymphs of Haemaphysalis longicornis, the cage-in-arm test and finger-tip method were carried out, in the same manner as Examples 1-2 and 1-3, with each of 16 kinds of plant essential oil of Table 4.

[3] = test system: nymphs of Haemaphysalis longicornis; assay: finger-tip method, tick repellency; format: in vivo
Method: By having the outdoor group of Haemaphysalis longicornis collected from the region around Bongdam-Myon, Hwasung-Shi, Kunggi-Do, South Korea as a subject, the repellency against ticks was determined by employing a finger-tip method. In 50 μl of ethanol, each sample was dissolved in an amount of 2 mg, and then treated on the second nodule of a third finger. […] All tests were carried out in triplicate. Repellency %=(Number of insects showing bloodsucking behavior in non-treatment group−Number of insects showing bloodsucking behavior in treatment group)/Number of insects showing bloodsucking behavior in non-treatment group)×100 […]

SMILES: COc1ccc(C=O)cc1OC [3,4-Dimethoxybenzaldehyde, 3,4-dimethoxybenzaldehyde]
- CPT [1]: 70 min
- CPT ([1]; listed as 3,4-demethoxybenzaldehyde): 70 min
- Repellency (mean ± SE, %) ([2]; 0.03 mg/cm^2, 10 minutes): 100 ± 0%
- Repellency (mean ± SE, %) ([2]; 0.03 mg/cm^2, 30 minutes): 75 ± 7.1%
- Repellency (mean ± SE, %) ([2]; 0.03 mg/cm^2, 60 minutes): 54 ± 4.3%
- Repellency (mean ± SE, %) ([2]; 0.10 mg/cm^2, 10 minutes): 100 ± 0%
- Repellency (mean ± SE, %) ([2]; 0.10 mg/cm^2, 30 minutes): 93 ± 4.3%
- Repellency (mean ± SE, %) ([2]; 0.10 mg/cm^2, 60 minutes): 90 ± 4.1%
- Repellency (mean ± SE, %) ([2]; 0.10 mg/cm^2, 90 minutes): 83 ± 8.8%
- Repellency (mean ± SE, %) ([2]; 0.10 mg/cm^2, 120 minutes): 58 ± 5.5%
- Repellency (mean ± SE, %) ([2]; 0.20 mg/cm^2, 10 minutes): 100 ± 0%
- Repellency (mean ± SE, %) ([2]; 0.20 mg/cm^2, 30 minutes): 100 ± 0%
- Repellency (mean ± SE, %) ([2]; 0.20 mg/cm^2, 60 minutes): 99 ± 2.3%
- Repellency (mean ± SE, %) ([2]; 0.20 mg/cm^2, 90 minutes): 94 ± 4.6%
- Repellency (mean ± SE, %) ([2]; 0.20 mg/cm^2, 120 minutes): 91 ± 1.7%
- Repellency (mean ± SE, %) ([2]; 0.20 mg/cm^2, 150 minutes): 83 ± 2.6%
- Repellency (mean ± SE, %) ([2]; 0.20 mg/cm^2, 180 minutes): 65 ± 6.0%
- Repellency (mean ± SE, %) ([2]; 0.25 mg/cm^2, 10 minutes): 100 ± 0%
- Repellency (mean ± SE, %) ([2]; 0.25 mg/cm^2, 30 minutes): 100 ± 0%
- Repellency (mean ± SE, %) ([2]; 0.25 mg/cm^2, 60 minutes): 100 ± 0%
- Repellency (mean ± SE, %) ([2]; 0.25 mg/cm^2, 90 minutes): 100 ± 0%
- Repellency (mean ± SE, %) ([2]; 0.25 mg/cm^2, 120 minutes): 100 ± 0%
- Repellency (mean ± SE, %) ([2]; 0.25 mg/cm^2, 150 minutes): 95 ± 3.2%
- Repellency (mean ± SE, %) ([2]; 0.25 mg/cm^2, 180 minutes): 58 ± 4.4%
- CPT ([2]; 4 mg, adult Aedes albopicus): 50 min
- Repellency (mean ± SE, %) ([3]; 0.01 mg/cm^2, 15 min.): 100 ± 0%
- Repellency (mean ± SE, %) ([3]; 0.01 mg/cm^2, 30 min.): 100 ± 0%
- Repellency (mean ± SE, %) ([3]; 0.01 mg/cm^2, 60 min.): 98 ± 2.5%
- Repellency (mean ± SE, %) ([3]; 0.01 mg/cm^2, 90 min.): 98 ± 2.5%
- Repellency (mean ± SE, %) ([3]; 0.01 mg/cm^2, 120 min.): 90 ± 5.8%
- Repellency (mean ± SE, %) ([3]; 0.01 mg/cm^2, 150 min.): 95 ± 2.9%
- Repellency (mean ± SE, %) ([3]; 0.01 mg/cm^2, 180 min.): 95 ± 2.9%
- Repellency (mean ± SE, %) ([3]; 0.01 mg/cm^2, 210 min.): 73 ± 10.3%
- Repellency (mean ± SE, %) ([3]; 0.01 mg/cm^2, 240 min.): 65% and 65 ± 2.9%
- Repellency (mean ± SE, %) ([3]; 0.01 mg/cm^2, 270 min.): 43 ± 4.8%
- Repellency (mean ± SE, %) ([3]; 0.02 mg/cm^2, 15 min.): 100 ± 0%
- Repellency (mean ± SE, %) ([3]; 0.02 mg/cm^2, 30 min.): 100 ± 0%
- Repellency (mean ± SE, %) ([3]; 0.02 mg/cm^2, 60 min.): 100 ± 0%
- Repellency (mean ± SE, %) ([3]; 0.02 mg/cm^2, 90 min.): 98 ± 2.5%
- Repellency (mean ± SE, %) ([3]; 0.02 mg/cm^2, 120 min.): 98 ± 2.5%
- Repellency (mean ± SE, %) ([3]; 0.02 mg/cm^2, 150 min.): 100 ± 0%
- Repellency (mean ± SE, %) ([3]; 0.02 mg/cm^2, 180 min.): 98 ± 2.5%
- Repellency (mean ± SE, %) ([3]; 0.02 mg/cm^2, 210 min.): 95 ± 5.0%
- Repellency (mean ± SE, %) ([3]; 0.02 mg/cm^2, 240 min.): 85 ± 2.9%
- Repellency (mean ± SE, %) ([3]; 0.02 mg/cm^2, 270 min.): 63 ± 4.8%
- Repellency (mean ± SE, %) ([3]; 0.02 mg/cm^2, 300 min.): 48 ± 2.5%
- repellency ([3]; 0.02 mg/cm^2 or higher, 4 hours after the treatment): ≥ 78%
- Repellency (mean ± SE, %) ([3]; 0.05 mg/cm^2, 15 min.): 100 ± 0%
- Repellency (mean ± SE, %) ([3]; 0.05 mg/cm^2, 30 min.): 100 ± 0%
- Repellency (mean ± SE, %) ([3]; 0.05 mg/cm^2, 60 min.): 100 ± 0%
- Repellency (mean ± SE, %) ([3]; 0.05 mg/cm^2, 90 min.): 98 ± 2.5%
- Repellency (mean ± SE, %) ([3]; 0.05 mg/cm^2, 120 min.): 98 ± 2.5%
- Repellency (mean ± SE, %) ([3]; 0.05 mg/cm^2, 150 min.): 85 ± 2.9%
- Repellency (mean ± SE, %) ([3]; 0.05 mg/cm^2, 180 min.): 83 ± 6.3%
- Repellency (mean ± SE, %) ([3]; 0.05 mg/cm^2, 210 min.): 85 ± 6.5%
- Repellency (mean ± SE, %) ([3]; 0.05 mg/cm^2, 240 min.): 78 ± 4.8%
- Repellency (mean ± SE, %) ([3]; 0.05 mg/cm^2, 270 min.): 70 ± 4.1%
- Repellency (mean ± SE, %) ([3]; 0.05 mg/cm^2, 300 min.): 50 ± 4.1%
- Repellency (mean ± SE, %) ([3]; 0.09 mg/cm^2, 15 min.): 100 ± 0%
- Repellency (mean ± SE, %) ([3]; 0.09 mg/cm^2, 30 min.): 100 ± 0%
- Repellency (mean ± SE, %) ([3]; 0.09 mg/cm^2, 60 min.): 100 ± 0%
- Repellency (mean ± SE, %) ([3]; 0.09 mg/cm^2, 90 min.): 98 ± 2.5%
- Repellency (mean ± SE, %) ([3]; 0.09 mg/cm^2, 120 min.): 100 ± 0%
- Repellency (mean ± SE, %) ([3]; 0.09 mg/cm^2, 150 min.): 100 ± 0%
- Repellency (mean ± SE, %) ([3]; 0.09 mg/cm^2, 180 min.): 100 ± 0%
- Repellency (mean ± SE, %) ([3]; 0.09 mg/cm^2, 210 min.): 98 ± 2.5%
- Repellency (mean ± SE, %) ([3]; 0.09 mg/cm^2, 240 min.): 83 ± 2.5%
- Repellency (mean ± SE, %) ([3]; 0.09 mg/cm^2, 270 min.): 73 ± 6.3%
- Repellency (mean ± SE, %) ([3]; 0.09 mg/cm^2, 300 min.): 65 ± 2.9%
